This passage reports IC50 results from ChEMBL document CHEMBL1137884, “Synthesis of ether analogues derived from HUN-7293 and evaluation as inhibitors of VCAM-1 expression” (Bioorg Med Chem Lett, 2004).

The pIC50 is the negative decadic logarithm of the IC50, by convention in mol/L.

pIC50: −log10 of the molar value. Numbered stars: 1 amine (or outer) side, 2 acyl side, 3 side chain; on linkers, the order of the positions; unused ones are H or OH. Square brackets hold non-standard residues; d marks the D form. Peptide text beside a SMILES is read from it. NMeTrp(1-OMe) = CN[C@@H](Cc1cn(OC)c2ccccc12)C(=O)O; Butanoyl(2R-oxy,4-CN) = N#CCC[C@@H](O)C(=O)O; X1 = CCCC[C@@H](C)C[C@H](N[*:1])C(=O)[*:2]; NMeL = CN[C@@H](CC(C)C)C(=O)O; NMeA = CN[C@@H](C)C(=O)O

For assay [1], the system named is HMEC. Briefly: inhibition of TNF-alpha-induced ICAM-1 expression in the human microvascular endothelial cell line HMEC-1. The format is functional, cell-based.
In assay [2] the test system is HMEC. Briefly: inhibition of TNF-alpha-induced VCAM-1 expression in the human microvascular endothelial cell line HMEC-1. The format is functional, cell-based.

Consider `CCCC[C@@H](C)C[C@H]1CN(C)[C@@H](C)C(=O)O[C@H](C)C(=O)N[C@@H](C[C@H](C)CCCC)C(=O)N(C)[C@@H](CC(C)C)C(=O)N[C@@H](CC(C)C)C(=O)N(C)[C@@H](Cc2cn(OC)c3ccccc23)C(=O)N1`, for which the pIC50 in the assay with HMEC [1] was below 4.52; in the assay on HMEC [2], 7.74.
For the compound `CCCC[C@@H](C)C[C@@H]1NC(=O)[C@H](Cc2cn(OC)c3ccccc23)N(C)C(=O)[C@H](CC(C)C)NC(=O)[C@H](CC(C)C)N(C)C(=O)[C@H](C[C@H](C)CCCC)NC(=O)[C@@H](C)OC(=O)[C@H](C)N(C)C1=O`, the values for the pIC50 with HMEC [1] and in the assay on HMEC [2] were 6.75 and 8.70, respectively.
In the assay with HMEC [2], `CCCC[C@@H](C)C[C@@H]1NC(=O)[C@H](Cc2cn(OC)c3ccccc23)N(C)C(=O)[C@H](CC(C)C)NC(=O)[C@H](CC(C)C)N(C)C(=O)[C@H](C[C@H](C)CCCC)NC(=O)COC[C@H](C)N(C)C1=O` showed a pIC50 of 6.70.
As for `CCCC[C@@H](C)C[C@@H]1NC(=O)[C@H](Cc2cn(OC)c3ccccc23)N(C)C(=O)[C@H](CC(C)C)NC(=O)[C@H](CC(C)C)N(C)C(=O)[C@H](C[C@H](C)CCCC)NC(=O)[C@H](C)OC[C@H](C)N(C)C1=O`, the pIC50 in the assay with HMEC [1] was below 4.52; in the assay with HMEC [2], 6.20.
Taken in the same sequence, the figures for `CCCC[C@@H](C)C[C@@H]1NC(=O)[C@H](Cc2cn(OC)c3ccccc23)N(C)C(=O)[C@H](CC(C)C)NC(=O)[C@H](CC(C)C)N(C)C(=O)[C@H](C[C@H](C)CCCC)NC(=O)[C@@H](C)OC[C@H](C)N(C)C1=O` were 5.78 and 7.82.
On to `CCCC[C@@H](C)C[C@H]1CN(C)[C@@H](C)C(=O)N[C@H](C)C(=O)N[C@@H](C[C@H](C)CCCC)C(=O)N(C)[C@@H](CC(C)C)C(=O)N[C@@H](CC(C)C)C(=O)N(C)[C@@H](Cc2cn(OC)c3ccccc23)C(=O)N1`, for which the pIC50 was 5.16 in the assay with HMEC [1] and 7.04 with HMEC [2].
As for `CCCC[C@@H](C)C[C@@H]1NC(=O)[C@H](Cc2cn(OC)c3ccccc23)N(C)C(=O)[C@H](CC(C)C)NC(=O)[C@H](CC(C)C)N(C)C(=O)[C@H](C[C@H](C)CCCC)NC(=O)[C@@H](CCC#N)OC(=O)[C@H](C)N(C)C1=O` (cyclo(L[NMeTrp(1-OMe)][X1][NMeA][Butanoyl(2R-oxy,4-CN)][X1][NMeL])), the pIC50 in the assay with HMEC [1] was 7.60.
